In patent US9302999B2, “Substituted triazoles as herbicides” (E. I. DU PONT DE NEMOURS AND COMPANY, priority 2012, dated 2016):

Columns and labels:
Format in all cases: in vivo
[1] = test system: morningglory (Ipomoea spp.); experiment: Test A pre-/postemergence: morningglory
From the text: (§1) Seeds of barnyardgrass (Echinochloa crus-galli), crabgrass, large (large crabgrass, Digitaria sanguinalis), foxtail, giant (giant foxtail, Setaria faberii), morningglory (Ipomoea spp.), pigweed (Amaranthus retroflexus), velvetleaf (Abutilon theophrasti), wheat (Triticum aestivum), and corn (Zea mays) were planted into a blend of loam soil and sand and treated preemergence with a directed soil spray using test chemicals formulated in a non-phytotoxic solvent mixture which included a surfactant. At the same time these species were also treated with postemergence applications of test chemicals formulated in the same manner.
(§2) Plants ranged in height from two to ten cm and were in the one- to two-leaf stage for the postemergence treatment. Treated plants and untreated controls were maintained in a greenhouse for approximately ten days, after which time all treated plants were compared to untreated controls and visually evaluated for injury. Plant response ratings, summarized in Table A, are based on a 0 to 100 scale where 0 is no effect and 100 is complete control. A dash (-) response means no test result.

[2] = test system: foxtail, giant (giant foxtail, Setaria faberii); experiment: Test A pre-/postemergence: foxtail, giant
From the text: as §1, §2

corn (Zea mays) = experiment: Test A pre-/postemergence: corn
From the text: as §1, §2

[3] = test system: wheat (Triticum aestivum); experiment: Test A pre-/postemergence: wheat
From the text: as §1, §2

[4] = test system: velvetleaf (Abutilon theophrasti); experiment: Test A pre-/postemergence: velvetleaf
From the text: as §1, §2

[5] = test system: barnyardgrass (Echinochloa crus-galli); experiment: Test A pre-/postemergence: barnyardgrass
From the text: as §1, §2

[6] = test system: pigweed (Amaranthus retroflexus); experiment: Test A pre-/postemergence: pigweed
From the text: as §1, §2

[7] = test system: crabgrass, large (large crabgrass, Digitaria sanguinalis); experiment: Test A pre-/postemergence: crabgrass, large
From the text: as §1, §2

[8] = Postemergence, 125 g ai/ha, 0 to 100 scale, 0 is no effect, 100 is complete control
[9] = Postemergence, 500 g ai/ha, visual rating on 0 to 100 scale (0 no effect, 100 complete control), approximately ten days
[10] = Preemergence, 125 g ai/ha, 0 to 100 scale (0 no effect, 100 complete control)
[11] = Preemergence, 500 g ai/ha, 0 to 100 scale, 0 is no effect, 100 is complete control
[12] = Postemergence, 1000 g ai/ha, visual rating on 0 to 100 scale (0 no effect, 100 complete control), approximately ten days
[13] = Preemergence, 1000 g ai/ha, 0 to 100 scale, 0 is no effect, 100 is complete control
[14] = Preemergence, 125 g ai/ha, 0 to 100 scale where 0 is no effect and 100 is complete control

Structure (SMILES)	Morningglory plant response rating [1, 8]	Morningglory plant response rating [1, 9]	Plant response rating, Morningglory [1, 11]	Foxtail, Giant plant response rating [2, 8]	Foxtail, Giant plant response rating [2, 9]	Plant response rating, Foxtail, Giant [2, 11]	Corn plant response rating (corn (Zea mays); [8])	Corn plant response rating (corn (Zea mays); [9])	Plant response rating, Corn (corn (Zea mays); [10])	Plant response rating, Corn (corn (Zea mays); [11])	Wheat plant response rating [3, 8]	Wheat plant response rating [3, 9]	Plant response rating, Wheat [3, 11]	Velvetleaf plant response rating [4, 8]	Velvetleaf plant response rating [4, 9]	Plant response rating, Velvetleaf [4, 11]	Barnyardgrass plant response rating [5, 8]	Barnyardgrass plant response rating [5, 9]	Plant response rating, Barnyardgrass [5, 10]	Plant response rating, Barnyardgrass [5, 11]	also measured
Cc1nn(-c2ccc(C(F)(F)F)cc2)nc1Nc1cccc(C(F)(F)F)c1 [Compound 69]	20	30	0	10	10	0	10	20	0	0	0	10	0	10	20	0	10	10	0	0	Plant response rating, Morningglory [1, 10]: 0; Plant response rating, Foxtail, Giant [2, 10]: 0; Plant response rating, Wheat [3, 10]: 0; Plant response rating, Velvetleaf [4, 10]: 0; Pigweed plant response rating [6, 8]: 30; Pigweed plant response rating [6, 9]: 90; Plant response rating, Pigweed [6, 10]: 0; Plant response rating, Pigweed [6, 11]: 10; Crabgrass, Large plant response rating [7, 8]: 10; Crabgrass, Large plant response rating [7, 9]: 20; Plant response rating, Crabgrass, Large [7, 10]: 0; Plant response rating, Crabgrass, Large [7, 11]: 10
Cc1nn(-c2ccc(F)cc2)nc1Cn1nc(C(F)(F)F)cc1C [Compound 97]																					Morningglory plant response rating [1, 12]: 40; Morningglory plant response rating [1, 13]: 0; Foxtail, Giant plant response rating [2, 12]: 20; Foxtail, Giant plant response rating [2, 13]: 20; Corn plant response rating (corn (Zea mays); [12]): 10; Corn plant response rating (corn (Zea mays); [13]): 0; Wheat plant response rating [3, 12]: 0; Wheat plant response rating [3, 13]: 0; Velvetleaf plant response rating [4, 12]: 50; Velvetleaf plant response rating [4, 13]: 0; Barnyardgrass plant response rating [5, 12]: 30; Barnyardgrass plant response rating [5, 13]: 30; Pigweed plant response rating [6, 12]: 60; Pigweed plant response rating [6, 13]: 0; Crabgrass, Large plant response rating [7, 12]: 60; Crabgrass, Large plant response rating [7, 13]: 40
Cc1nn(-c2ccc(F)cc2)nc1Oc1nccc(C(F)(F)F)n1 [Compound 102]	0	0	0	0	0	0	0	0	0	0	0	0	0	0	0	0	0	0	0	0	Plant response rating, Morningglory [1, 14]: 0; Plant response rating, Foxtail, Giant [2, 14]: 0; Plant response rating, Wheat [3, 14]: 0; Plant response rating, Velvetleaf [4, 14]: 0; Pigweed plant response rating [6, 8]: 10; Pigweed plant response rating [6, 9]: 70; Plant response rating, Pigweed [6, 14]: 0; Plant response rating, Pigweed [6, 11]: 0; Crabgrass, Large plant response rating [7, 8]: 0; Crabgrass, Large plant response rating [7, 9]: 10; Plant response rating, Crabgrass, Large [7, 10]: 0; Plant response rating, Crabgrass, Large [7, 11]: 0
